Among the data in ChEMBL document CHEMBL5370649, “Novel Coumarin Derivatives Inhibit the Quorum Sensing System and Iron Homeostasis as Antibacterial Synergists against Pseudomonas aeruginosa” (J Med Chem, 2023) are MIC, IC50 and Activity values, retold here.

The subject of data set [1] is Pseudomonas aeruginosa. Nature of the data set: Antibacterial activity against Pseudomonas aeruginosa PAO1 in ABTGC medium assessed as bacterial growth inhibition incubated for 16 hrs. It is filed as functional.
Data set [2] deals with Pseudomonas aeruginosa. Nature of the data set: Antibiofilm activity against Pseudomonas aeruginosa PAO1 in ABTGC medium assessed as inhibition of biofilm formation incubated for 24 hrs by crystal violet staining based absorbance assay. The format is functional, organism-based. To be noted: PAO1, 24 h.
A short description of data set [3]: Toxicity in Balb/c mouse wound infection model infected with Pseudomonas aeruginosa PAO1 assessed as morphological changes in lung at 0.0025 to 0.5 mg/ml,TOP for 3 days by H and E staining based analysis. It is filed as tissue-based. To be noted: in vivo, topical_or_ocular, 72 h, dose 0.0025-0.5 mg/ml, time 3 day.
Data set [4] can be described thus: Toxicity in Balb/c mouse wound infection model infected with Pseudomonas aeruginosa PAO1 assessed as morphological changes in kidney at 0.0025 to 0.5 mg/ml,TOP for 3 days by H and E staining based analysis. To be noted: in vivo, topical_or_ocular, 72 h, dose 0.0025-0.5 mg/ml, time 3 day. It is filed as tissue-based.
Data set [5] can be described thus: Toxicity in Balb/c mouse wound infection model infected with Pseudomonas aeruginosa PAO1 assessed as morphological changes in liver at 0.0025 mg/ml,TOP for 3 days in presence of N-hydroxy-7-((6-methyl-2-oxo-2H-chromen-4-yl)oxy)heptanamide by H and E staining based analysis. It is filed as tissue-based. To be noted: in vivo, topical_or_ocular, 72 h, time 3 day.

A short description of data set [6]: Toxicity in Balb/c mouse wound infection model infected with Pseudomonas aeruginosa PAO1 assessed as morphological changes in heart at 0.0025 mg/ml,TOP for 3 days in presence of N-hydroxy-7-((6-methyl-2-oxo-2H-chromen-4-yl)oxy)heptanamide by H and E staining based analysis. The format is tissue-based. To be noted: in vivo, topical_or_ocular, 72 h, time 3 day.

The nature of data set [7]: Toxicity in Balb/c mouse wound infection model infected with Pseudomonas aeruginosa PAO1 assessed as morphological changes in spleen at 0.0025 to 0.5 mg/ml,TOP for 3 days by H and E staining based analysis. The format is tissue-based. The conditions noted are these: in vivo, topical_or_ocular, 72 h, dose 0.0025-0.5 mg/ml, time 3 day.
Data set [8] in a line: Toxicity in Balb/c mouse wound infection model infected with Pseudomonas aeruginosa PAO1 assessed as morphological changes in heart at 0.0025 to 0.5 mg/ml,TOP for 3 days by H and E staining based analysis. It is filed as tissue-based. The conditions noted are these: in vivo, topical_or_ocular, 72 h, dose 0.0025-0.5 mg/ml, time 3 day.
The nature of data set [9]: Toxicity in Balb/c mouse wound infection model infected with Pseudomonas aeruginosa PAO1 assessed as morphological changes in lung at 0.0025 mg/ml,TOP for 3 days in presence of N-hydroxy-7-((6-methyl-2-oxo-2H-chromen-4-yl)oxy)heptanamide by H and E staining based analysis. It is filed as tissue-based. To be noted: in vivo, topical_or_ocular, 72 h, time 3 day.
The nature of data set [10]: Toxicity in Balb/c mouse wound infection model infected with Pseudomonas aeruginosa PAO1 assessed as body weight change at 0.0025 to 0.5 mg/ml,TOP for 3 days. The conditions noted are these: in vivo, topical_or_ocular, 72 h, dose 0.0025-0.5 mg/ml, time 3 day.
For data set [11], the system named is Pseudomonas aeruginosa. Nature of the data set: In vivo antibacterial activity against Pseudomonas aeruginosa PAO1 infected in Balb/c mouse wound infection model assessed as healing degree of wound at 0.5 mg/ml,TOP QD for 3 days and measured after 9 days. To be noted: time 3.0 day. It is filed as functional, organism-based.
A short description of data set [12]: Toxicity in Balb/c mouse wound infection model infected with Pseudomonas aeruginosa PAO1 assessed as morphological changes in spleen at 0.0025 mg/ml,TOP for 3 days in presence of N-hydroxy-7-((6-methyl-2-oxo-2H-chromen-4-yl)oxy)heptanamide by H and E staining based analysis. It is filed as tissue-based. To be noted: in vivo, topical_or_ocular, 72 h, time 3 day.

The test system of data set [13] is Pseudomonas aeruginosa. Briefly: In vivo antibacterial activity against Pseudomonas aeruginosa PAO1 infected in Balb/c mouse wound infection model assessed as reduction in bacterial survival rate at wounded area at 0.5 mg/ml,TOP QD for 3 days by CFU assay. To be noted: time 3 day. It is filed as functional.
The nature of data set [14]: Toxicity in Balb/c mouse wound infection model infected with Pseudomonas aeruginosa PAO1 assessed as morphological changes in kidney at 0.0025 mg/ml,TOP for 3 days in presence of N-hydroxy-7-((6-methyl-2-oxo-2H-chromen-4-yl)oxy)heptanamide by H and E staining based analysis. It is filed as tissue-based. The conditions noted are these: in vivo, topical_or_ocular, 72 h, time 3 day.

The nature of data set [15]: Toxicity in Balb/c mouse wound infection model infected with Pseudomonas aeruginosa PAO1 assessed as body weight change at 0.0025 mg/ml,TOP for 3 days in presence of N-hydroxy-7-((6-methyl-2-oxo-2H-chromen-4-yl)oxy)heptanamide. To be noted: in vivo, topical_or_ocular, 72 h, time 3 day.
Data set [16] in a line: Toxicity in Balb/c mouse wound infection model infected with Pseudomonas aeruginosa PAO1 assessed as morphological changes in liver at 0.0025 to 0.5 mg/ml,TOP for 3 days by H and E staining based analysis. It is filed as tissue-based. The conditions noted are these: in vivo, topical_or_ocular, 72 h, dose 0.0025-0.5 mg/ml, time 3 day.
Data set [17] concerns Pseudomonas aeruginosa. Nature of the data set: In vivo antibacterial activity against Pseudomonas aeruginosa PAO1 infected in Balb/c mouse wound infection model assessed as healing degree of wound at 0.005 mg/ml,TOP QD for 3 days and measured after 9 days. The conditions noted are these: time 3.0 day. It is filed as functional, organism-based.

Active and inactive are the calls of the source. The rule behind the calls is not given here. Bounds are passed on as bounds.

As usually defined, the MIC is the lowest concentration that inhibits growth of the organism. For orientation: IC50 means the concentration that gives 50% inhibition. With `COc1ccc2c(OCCCCC(=O)NO)cc(=O)oc2c1`, the MIC with Pseudomonas aeruginosa [1] is more than 256 µM. In addition, the IC50 with Pseudomonas aeruginosa [2] is more than 100 µM.

For `Cc1ccc2oc(=O)cc(NCCCCCC(=O)NO)c2c1`, the MIC with Pseudomonas aeruginosa [1] was more than 256 µM. In the data set with Pseudomonas aeruginosa [2], the IC50 was more than 100 µM.

For `O=C(CCCCOc1cc(=O)oc2ccc(Br)cc12)NO`, the MIC in the data set on Pseudomonas aeruginosa [1] was more than 256 µM. Besides, the IC50 in the data set on Pseudomonas aeruginosa [2] was determined as 29.7 µM.

Consider `Cc1ccc2c(OCCCCCC(=O)NO)cc(=O)oc2c1`, for which, in the data set on Pseudomonas aeruginosa [1], the MIC is more than 256 µM. In the data set on Pseudomonas aeruginosa [2], the IC50 is more than 100 µM.

In the case of `Cc1ccc2oc(=O)cc(OCCCCCCCCC(=O)NO)c2c1`, the MIC with Pseudomonas aeruginosa [1] was more than 256 µM. The IC50 in the data set on Pseudomonas aeruginosa [2] was 20.4 µM.

Consider `O=C(CCCCCOc1cc(=O)oc2ccc(Cl)cc12)NO`, for which, in the data set on Pseudomonas aeruginosa [1], the MIC is more than 256 µM. Also, the half-maximal inhibitory concentration (IC50) in the data set on Pseudomonas aeruginosa [2] was more than 100 µM.

Take `NC[C@H]1O[C@H](O[C@H]2[C@H](O)[C@@H](O[C@H]3O[C@H](CO)[C@@H](O)[C@H](N)[C@H]3O)[C@H](N)C[C@@H]2N)[C@H](N)C[C@@H]1O` [TOBRAMYCIN]: the Activity result in data set [3], in data set [4], in data set [5], in [6], in data set [7] and in data set [8] was “Non-Toxic” in each case. For the same compound, the Activity result in [9] is “Non-Toxic”; in data set [10], “Non-Toxic”; in [12], “Non-Toxic”; in the data set with Pseudomonas aeruginosa [13], 5.77%; in data set [14] it was “Non-Toxic”; in data set [15], “Non-Toxic”. In addition, the Activity result in data set [16] was “Non-Toxic”. The result in the data set on Pseudomonas aeruginosa [11] was Active.

As for `COc1ccc2oc(=O)cc(OCCCCC(=O)NO)c2c1`, the MIC with Pseudomonas aeruginosa [1] is more than 256 µM. Also, the IC50 with Pseudomonas aeruginosa [2] is more than 100 µM.

As to `O=C(CCCOc1cc(=O)oc2ccc(F)cc12)NO`, in the data set on Pseudomonas aeruginosa [1], the MIC is more than 256 µM. Also, in the data set with Pseudomonas aeruginosa [2], the IC50 was more than 100 µM.

In the case of `O=C(CCCCCCOc1cc(=O)oc2ccc(F)cc12)NO`, the MIC in the data set on Pseudomonas aeruginosa [1] was more than 256 µM. Also, the IC50 in the data set with Pseudomonas aeruginosa [2] turned out to be 26.4 µM.

As to `CC[C@H]1OC(=O)[C@H](C)[C@@H](O[C@H]2C[C@@](C)(OC)[C@@H](O)[C@H](C)O2)[C@H](C)[C@@H](O[C@@H]2O[C@H](C)C[C@H](N(C)C)[C@H]2O)[C@](C)(O)C[C@@H](C)CN(C)[C@H](C)[C@@H](O)[C@]1(C)O` [AZITHROMYCIN], in the data set on Pseudomonas aeruginosa [2], the IC50 is 17.3 µM.

Turning to `O=C(CCCCCOc1cc(=O)oc2ccc(Br)cc12)NO`, the MIC with Pseudomonas aeruginosa [1] was more than 256 µM. Besides, the IC50 with Pseudomonas aeruginosa [2] is more than 100 µM.

Regarding `Cc1ccc2oc(=O)cc(NCCCC(=O)NO)c2c1`, the MIC in the data set on Pseudomonas aeruginosa [1] is more than 256 µM. For the same compound, the IC50 with Pseudomonas aeruginosa [2] is more than 100 µM.

As for `Cc1ccc2c(OCCCCC(=O)NO)cc(=O)oc2c1`, the MIC in the data set with Pseudomonas aeruginosa [1] is more than 256 µM. For the same compound, the IC50 in the data set with Pseudomonas aeruginosa [2] is more than 100 µM.

`COc1ccc2oc(=O)cc(OCCCCCCC(=O)NO)c2c1`: the MIC in the data set with Pseudomonas aeruginosa [1] is more than 256 µM. Further, the IC50 in the data set with Pseudomonas aeruginosa [2] is more than 100 µM.

For the compound `Cc1ccc2oc(=O)cc(NCCCCCCC(=O)NO)c2c1`, in the data set with Pseudomonas aeruginosa [1], the MIC is more than 256 µM. Moreover, the IC50 in the data set on Pseudomonas aeruginosa [2] is more than 100 µM.

On to `O=C(O)c1cn(C2CC2)c2cc(N3CCNCC3)c(F)cc2c1=O`, for which, in the data set with Pseudomonas aeruginosa [17], the outcome was Active.

In the case of `O=C(CCCCCCOc1ccccc1)NO`, the MIC in the data set on Pseudomonas aeruginosa [1] was more than 256 µM. In addition, in the data set on Pseudomonas aeruginosa [2], the IC50 was more than 100 µM.

On to `O=C(CCCCCCOc1cc(=O)oc2ccc(Br)cc12)NO`, for which the MIC with Pseudomonas aeruginosa [1] is more than 256 µM. The IC50 in the data set with Pseudomonas aeruginosa [2] came to 44.4 µM.

Regarding `Cc1ccc2c(OCCCC(=O)NO)cc(=O)oc2c1`, the MIC in the data set on Pseudomonas aeruginosa [1] was more than 256 µM. Also, in the data set with Pseudomonas aeruginosa [2], the IC50 is more than 100 µM.

For `O=C(CCCCOc1cc(=O)oc2ccc(Cl)cc12)NO`, the MIC in the data set on Pseudomonas aeruginosa [1] was more than 256 µM. The IC50 in the data set on Pseudomonas aeruginosa [2] was more than 100 µM.

Turning to `O=C(CCCOc1cc(=O)oc2cc(Cl)ccc12)NO`, in the data set on Pseudomonas aeruginosa [1], the MIC was more than 256 µM. For the same compound, in the data set on Pseudomonas aeruginosa [2], the IC50 was found to be 88.4 µM.

For `Cc1ccc2oc(=O)cc(OCc3ccc(C(=O)NO)cc3)c2c1`, the MIC in the data set on Pseudomonas aeruginosa [1] was more than 256 µM. The IC50 in the data set with Pseudomonas aeruginosa [2] was more than 100 µM.

For `O=C(CCCCOc1cc(=O)oc2ccccc12)NO`, in the data set on Pseudomonas aeruginosa [1], the MIC was more than 256 µM. Besides, in the data set with Pseudomonas aeruginosa [2], the IC50 was determined as 42.3 µM.

Turning to `COc1ccc2c(OCCCC(=O)NO)cc(=O)oc2c1`, the MIC in the data set on Pseudomonas aeruginosa [1] is more than 256 µM. In addition, the IC50 with Pseudomonas aeruginosa [2] is more than 100 µM.

With `O=C(CCCCOc1cc(=O)oc2cc(Cl)ccc12)NO`, the MIC in the data set on Pseudomonas aeruginosa [1] is more than 256 µM. Further, the IC50 in the data set with Pseudomonas aeruginosa [2] amounted to 42.3 µM.
